# Experiments:
# Assay type in all cases: cell-based
# human muscarinic M4 = biological target: T1, human muscarinic M4 (Homo sapiens, UniProt P08173); assay: cAMP HTRF functional assay, forskolin-induced cAMP production in M4/CHO/miRNA cell line
# T1 construct: expressed in transfected cells; host or cells: CHO-K1 (M4/CHO and M4/CHO/miRNA cell lines)
# T1 sequence (P08173 1-479): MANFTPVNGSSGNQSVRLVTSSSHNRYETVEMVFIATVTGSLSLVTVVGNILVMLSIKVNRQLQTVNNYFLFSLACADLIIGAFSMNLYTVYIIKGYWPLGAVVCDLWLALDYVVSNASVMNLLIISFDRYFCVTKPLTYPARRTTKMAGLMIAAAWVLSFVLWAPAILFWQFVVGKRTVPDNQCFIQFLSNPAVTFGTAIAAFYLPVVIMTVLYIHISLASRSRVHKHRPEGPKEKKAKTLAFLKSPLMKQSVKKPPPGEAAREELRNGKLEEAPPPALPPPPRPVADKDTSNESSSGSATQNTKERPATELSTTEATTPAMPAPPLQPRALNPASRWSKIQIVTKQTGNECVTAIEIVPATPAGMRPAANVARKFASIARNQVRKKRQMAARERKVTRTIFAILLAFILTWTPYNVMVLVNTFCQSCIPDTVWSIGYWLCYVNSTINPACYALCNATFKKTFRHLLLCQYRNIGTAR
# Experimental: CHO-K1 stably expressing the human muscarinic M4 or the human dopamine D4.4 receptor were cultured under standard conditions. Cells were harvested by EDTA, washed once in phosphate buffered saline and resuspended in assay buffer (HBSS containing 0.1% glucose and 0.5 mM IBMX). The cells were dispensed into a black 96 half-well plate at a cell density of 10,000-15,000 cells. After incubation for 30 min at room temperature or at 37° C., an equal volume of assay buffer containing forskolin, then acetylcholine or quimpirole was added to the cells. After incubation for 30 min at room temperature or 37° C., cAMP detection was performed following the protocol described above. The plate was incubated for one more hour at room temperature and then measured on a RUBYstar^a (BMG Labtechnologies) time-resolved fluorescence reader. […]
# [1] = biological target: T2, human dopamine D4.4 receptor (Homo sapiens, UniProt P21917); assay: cAMP assay with NKH477 or forskolin as activator, D4.4 receptor stably expressed in CHO-K1; conditions: D4.4 in CHO-K1, 1 μM of agonist (dopamine)
# T2 construct: expressed in transfected cells; host or cells: CHO-K1
# T2 sequence (P21917 1-419): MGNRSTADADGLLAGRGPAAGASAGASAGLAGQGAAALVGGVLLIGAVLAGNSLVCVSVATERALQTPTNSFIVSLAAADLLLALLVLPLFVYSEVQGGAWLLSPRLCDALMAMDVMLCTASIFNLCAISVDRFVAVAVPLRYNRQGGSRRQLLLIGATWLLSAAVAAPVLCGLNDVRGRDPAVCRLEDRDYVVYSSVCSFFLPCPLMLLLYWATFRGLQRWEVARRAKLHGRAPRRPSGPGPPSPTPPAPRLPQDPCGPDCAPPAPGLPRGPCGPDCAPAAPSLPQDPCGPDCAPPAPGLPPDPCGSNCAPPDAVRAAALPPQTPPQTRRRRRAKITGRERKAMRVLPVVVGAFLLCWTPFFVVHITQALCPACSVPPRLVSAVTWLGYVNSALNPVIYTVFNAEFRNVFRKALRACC
# Experimental: cAMP measurements on CHO-K1 cells that stably expressed the human muscarinic M4 or the human dopamine D4.4 receptor were performed via the HTRF (homogeneous time-resolved fluorescence) technology (CIS Bio, France). The principle of these cAMP assays is based on a competition between cAMP produced by cells and cAMP-XL665 conjugate for the binding with monoclonal anti-cAMP-cryptate conjugate. The HTRF) conjugates are prepared in lysis buffer so that the cell lysis and the detection step can be performed simultaneously.
# (§1) To measure the production of cAMP from cells, cells were harvested and resuspended with HBSS Buffer. Varying concentrations of cells were plated in a 96-well plate. Serial dilutions of agonists (Dopamine or Epinephrine) were added and incubated for 10′ at room temperature with the cells. Forskolin or NKH477 were added, and the plate was incubated at 37° C. for 10 minutes. After cell induction, the assay reagents were added as outlined in the assay procedure.
# For the D4—CHO K1 cell line (D4 stably transfected in CHO K1 host cell line) 0.7 μM of NKH477 and Forskolin were used with or without 1 μM of Dopamine
# (§2) c) CHO-K1 cells expressing D4.4, alpha2c H3 and D2S receptors were exposed to increasing concentrations of ligands, respectively dopamine, epinephrine, histamine and dopamine ranging from 0.01 nM to 10 μM in the presence of 30 μM forskolin or 10 μM NKH-477.
# [2] = system: adenylyl cyclase isoform V and/or VI; assay: cAMP production with NKH-477 instead of forskolin as in vitro activator of cAMP formation; conditions: cells expressing the adenylyl cyclase isoform V and/or VI
# alpha 2c receptor = biological target: T3, alpha 2c receptor (Homo sapiens, UniProt P18825); assay: cAMP assay with NKH477 or forskolin as activator, alpha 2c receptor stably expressed in CHO-S; conditions: alpha 2c in CHO-S, 1 μM of agonist (epinephrine)
# T3 construct: expressed in transfected cells; host or cells: CHO-S
# T3 sequence (P18825 1-462): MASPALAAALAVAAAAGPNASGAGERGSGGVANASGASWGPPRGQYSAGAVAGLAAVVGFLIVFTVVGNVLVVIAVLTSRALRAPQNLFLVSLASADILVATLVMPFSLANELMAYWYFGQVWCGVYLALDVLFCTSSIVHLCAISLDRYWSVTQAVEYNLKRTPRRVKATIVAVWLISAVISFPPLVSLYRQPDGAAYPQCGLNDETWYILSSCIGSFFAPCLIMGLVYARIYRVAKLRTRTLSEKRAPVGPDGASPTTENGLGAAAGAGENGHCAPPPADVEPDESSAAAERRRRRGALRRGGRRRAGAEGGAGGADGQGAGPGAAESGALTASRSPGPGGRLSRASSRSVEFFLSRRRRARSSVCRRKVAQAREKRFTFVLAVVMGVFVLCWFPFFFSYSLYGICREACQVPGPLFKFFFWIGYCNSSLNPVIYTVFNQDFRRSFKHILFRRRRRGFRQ
# Experimental: as §1
# For the alpha2c—CHO S cell line (alpha 2c stably transfected in CHO S host cell line) was incubate with 5 μM of NKH477 and Forskolin 10′ at 37° C. without or with 1 μM of Epinephrine
# as §2
smiles,measurement,setting,value
O=C1CCCN1CC#CCN1CCCC1 [Oxotremorine],inhibition at 1 µM,"human muscarinic M4; 1 μM, M4/CHO/miRNA cell line, read-out: inhibition of Forskolin stimulated cAMP production",> 85%
same,increase of inhibitory potency on Forskolin induced cAMP production compared to wild CHO cells expressing M4 receptor,human muscarinic M4; M4/CHO/miRNA versus M4/CHO,25-30%
"C=C[C@@]1(C)CC(=O)[C@]2(O)[C@@]3(C)[C@@H](O)CCC(C)(C)[C@@H]3[C@H](OC(=O)CCN(C)C)[C@H](OC(C)=O)[C@@]2(C)O1.Cl [NKH477, 6-(3-dimethylaminopropionyl) forskolin hydrochloride]",enhancement of cAMP production inhibition with NKH477 instead of forskolin,[1],up to 20%
same,signal window compared with Forskolin,[1],greater signal window than Forskolin
same,increase of the production of cAMP instead of forskolin,[2],up to 20%
same,enhancement of cAMP production inhibition with NKH477 instead of forskolin,alpha 2c receptor,up to 20%
same,signal window compared with Forskolin,alpha 2c receptor,greater signal window than Forskolin
